The target of assay [1] is T1, CRMP4b-RhoA binding (Homo sapiens, UniProt P61586).
T1 construct: expressed in transfected cells; host or cells: HEK293T
As to the kind of experiment: CRMP-RhoA co-immunoprecipitation, full length CRMP4b binding to RhoA in co-transfected HEK293T cells. In kind it is cell-based, rat. To be noted: co-transfection with myc-RhoAWT and CRMP4-V5, myc-immunoprecipitation, FIG. 7c. The method, then:
(§1) HEK 293T cells were grown to sub-confluence and transfected with Lipofectamine 2000 according to manufacturer instructions (Invitrogen, Burlington, Ontario), washed twice with ice-cold PBS and lysed in lysis buffer A (50 mM Tris, pH 7.4, 150 mM NaCl, 1 mM EDTA, 1% (v/v) Triton X-100, 1 mM Na3VO4, 1 mM NaF, 1 mM PMSF and CØmplete protease inhibitors (Roche Diagnostics, Laval, PQ)). Lysates were pre-cleared with protein A/G-agarose (Santa Cruz Biotechnology, Santa Cruz, Calif.) and subjected to immunoprecipitation with myc-agarose or V5-agarose (Sigma Chemical Co., Oakville, Ontario). After washing 3 times with ice-cold PBS, bound protein was eluted with SDS and immunoblotted with anti-Myc (9E10, 1:1000; Sigma Chemical Co., Oakville, Ontario) or anti-V5 (1:5000; Invitrogen, Burlington, Ontario). For time course experiments, PC12 cells were transfected for 24 hours using Lipofectamine 2000 (Invitrogen, Burlington, Ontario) and differentiated with 50 ng/ml nerve growth factor (NGF; Upstate Biotechnology, Waltham, Mass.) for 24 hours. Cells were treated with Nogo-P4 peptide for the indicated period of time at 37° C. Cells were then lysed and proteins were immunoprecipitated as described above.

In assay [2] the target is T2, CRMP4a-RhoA binding (Homo sapiens, UniProt P61586).
T2 construct: expressed in transfected cells; host or cells: HEK293T
As to the kind of experiment: CRMP-RhoA co-immunoprecipitation, CRMP4a binding to RhoA in co-transfected HEK293T cells. In kind it is cell-based, rat. The note with it: co-transfection with myc-RhoAWT and CRMP4-V5, myc-immunoprecipitation, FIG. 7c. Here is the method:
as §1

Assay [3] deals with T3, binding between FLAG-RhoA63L and myc-ROCK (Homo sapiens, UniProt P61586, Q63L).
T3 construct: expressed in transfected cells; host or cells: HEK293T
As to the kind of experiment: Co-immunoprecipitation of FLAG-RhoA63L and myc-ROCK in co-transfected HEK293T cells. In kind it is cell-based. The note with it: FIG. 7d. Here is the method:
as §1

Assay [4] deals with dissociated E13 chick DRG neurons. The experiment in a line: Neurite outgrowth assay on myelin substrate, HSV-infected neurons. The note with it: introduced via recombinant HSV, compared to GFP- or full length CRMP4b-infected neurons, FIG. 8b, d. In kind it is cell-based. Here is the method: (§2) For neurite outgrowth assays, myelin was dried down on poly-L-lysine-coated substrates. Substrates were washed and coated with 10 μg/ml laminin for 1 hr. For outgrowth on aggrecan, poly-L-lysine-coated substrates were coated with aggrecan and 10 μg/ml laminin for 2 hr at 37° C. Dissociated E13 chick DRG neurons were cultured in DRG media (F-12 medium. 10% FBS, 1% penicillin/streptomycin, 1% L-glutamine, 50 ng/ml NGF) in the presence of virus for 24 hours, fixed with 4% paraformaldehyde/20% sucrose in PBS and double stained with anti-βIII tubulin (Covance, Berkeley, Calif.) and anti-V5 antibody (Sigma Chemical Co. Oakville, Ontario). Neurite outgrowth lengths per cell were assessed using Image J, a public domain JAVA image processing program as previously described (Fournier et al., 2003).

Assay [5] has the same test system. The experiment in a line: Neurite outgrowth assay on laminin (control) substrate, HSV-infected neurons. To be noted: introduced via recombinant HSV, normalized to GFP-infected neurons, FIG. 8b, c. The format is cell-based. The method, then:
as §2

For assay [6] the test system is unchanged. The experiment in a line: Neurite outgrowth assay on aggrecan substrate, HSV-infected neurons. The format is cell-based. To be noted: introduced via recombinant HSV, FIG. 8e. The method, then:
as §2

Assay [7] relates to E8 chick DRG neurons. As to the kind of experiment: Sema3A-dependent growth cone collapse assay. In kind it is cell-based. To be noted: HSV-infected, stimulated 20 min with AP-Sema3A ligand, FIG. 8f. Here is the method:
[…] Sema3A-AP or AP conditioned media was prepared as described previously (Takahashi et al., 1998). Explants were stimulated with Sema3A-AP- or AP-conditioned media at indicated concentrations for 20 min and fixed with 4% paraformaldehyde, 20% sucrose and 0.1M NaPO4. Explants were stained with rhodamine phalloidin and assessed for growth cone collapse as described (Luo et al., 1993).

Assay [8] concerns E13 chick DRG neurons. The experiment in a line: Filopodia and neurite branch analysis of HSV-infected DRG growth cones. In kind it is cell-based. To be noted: overexpression by HSV infection. Here is the method:
E7-13 chick DRG explants were cultured in DRG media on poly-L-lysine- and laminin-coated substrates for 18 hours. For viral infections, recombinant viral preparations were added to the media 1 hour after plating. After 18 hours, cultures were treated with myelin and fixed with 4% paraformaldehyde/20% sucrose/PBS, permeabilized in 0.2% triton X-100 and double stained with polyclonal anti-RhoA antibody (Santa Cruz Biotechnology, Santa Cruz, Calif.) and anti-CRMP4b or V5 antibody. For filopodia and branch analysis, GFP and CRMP4bV5-infected growth cones were double stained with rhodamine-phalloidin (Molecular Probes, Eugene, Oreg.) and anti-V5 antibody. Filopodial length per growth cone was assessed using Image J, by measuring total filopodial length per growth cone averaged by the total number of filopodia per growth cone. Neurite branches were quantified by counting total branch buds per neurite.

T3 sequence (P61586 1-190 Q63L limits assumed): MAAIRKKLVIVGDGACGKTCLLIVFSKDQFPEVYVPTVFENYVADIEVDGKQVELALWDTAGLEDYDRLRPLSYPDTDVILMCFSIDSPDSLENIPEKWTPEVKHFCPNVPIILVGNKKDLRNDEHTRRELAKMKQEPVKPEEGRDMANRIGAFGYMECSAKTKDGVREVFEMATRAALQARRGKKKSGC
T2 sequence (P61586 1-190 limits assumed): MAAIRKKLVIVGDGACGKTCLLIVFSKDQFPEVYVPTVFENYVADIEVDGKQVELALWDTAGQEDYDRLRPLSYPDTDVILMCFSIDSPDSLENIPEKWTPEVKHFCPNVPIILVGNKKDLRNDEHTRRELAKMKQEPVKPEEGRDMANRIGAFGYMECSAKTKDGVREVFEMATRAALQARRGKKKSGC
T1 sequence (P61586 1-190 limits assumed): as above

Turning to “C4RIP-V5: CRMP4b-RhoA Inhibitory Peptide: first 126 residues of the unique amino terminal domain of CRMP4b (SEQ ID NO: 2), fused to a V5-epitope tag”, the “effect on RhoA binding to full length CRMP4b” value in assay [1] is reported as “significantly diminishes RhoA binding to full length CRMP4b”. In addition, the “effect on RhoA binding to CRMP4a” value in assay [2] is recorded as “without affecting binding to CRMP4a”. The “effect on binding between FLAG-RhoA63L and myc-ROCK” value in assay [3] was “does not diminish binding between FLAG-RhoA63L and myc-ROCK”. Further, the “neurite outgrowth on myelin substrate (myelin-dependent outgrowth inhibition)” value in assay [4] is “significantly attenuates myelin-dependent outgrowth inhibition”. The “basal neurite outgrowth on permissive control (laminin) substrate” value in assay [5] is “does not promote basal DRG outgrowth on permissive control substrates”. Moreover, the “neurite outgrowth on aggrecan” value in assay [6] is “promotes neurite outgrowth on aggrecan”. Besides, the “Sema3A-dependent growth cone collapse” value in assay [7] is on record as “no effect on Sema3A-dependent growth cone collapse”.

As to “CRMP4b-V5: full length rat CRMP4b (SEQ ID NO: 1) with V5-His tag, overexpressed via HSV or plasmid”, in assay [3], the “effect on binding between FLAG-RhoA63L and myc-ROCK” value was “does not affect the binding between FLAG-RhoA63L and myc-ROCK”. In assay [5], the “basal neurite outgrowth on permissive control (laminin) substrate” value is “not sufficient to mimic myelin inhibitory responses”. In addition, the branches per neurite in assay [8] (average (GFP-infected: 2), FIG. 5g) was determined as 8 branches per neurite. Also, the “filopodia length increase versus GFP-infected growth cones” value in assay [8] (average, FIG. 5e, f, g) worked out at 70%.
